These results are taken from patent US7148376B2, “Polymorphic forms of nateglinide” (Teva Pharmaceutical Industries Ltd., priority 2002, dated 2006).

Structures are written as SMILES. “Also recorded” adds a separate entry of the source.

The nature of data set [1]: Polymorphic stability on storage at room temperature (XRPD). The format is physicochemical. The settings on record: storage at room temperature and pressure for about a day. As to the method: The various crystalline forms are also analyzed by Thermal Gravimetric Analysis (TGA). […] In contrast to the above listed forms, TGA profiles of forms L, P, U, α, δ and σ show no significant weight loss. These polymorphic forms of nateglinide are free of bound solvents, i.e., less than about 2% LOD. Table III lists the solvents used for the preparation for nateglinide solvated forms, as well as LOD values based on TGA analysis.
Storage at room temperature and pressure may also cause a transition of one form to another.
(§1) • X-Ray diffraction was performed on X-Ray powder diffractometer, Scintag®, variable goniometer, Cu-tube, solid state detector. Sample holder: A round standard aluminum sample holder with round zero background quartz plate. • The sample was put on the sample holder and immediately analyzed as is. • Scanning parameters: Range: 2–40 deg 2θ, Continuos Scan, Rate: 3 deg./min. DSC: • DSC821^e Mettler Toledo®, Sample weight: 3–5 mg, Heating rate: 10° C./min, Number of holes in the crucible: 3 TGA: • Mettler TG50®, Sample weight: 7–15 mg, Heating rate: 10° C./min FTIR: • Perkin-Elmer®, Spectrum One FTIR spectrometer, Range: 4000–400 cm−1, no. of scans: 16, resolution: 4.0 cm−1, DRIFT technique.

Data set [2] in a line: Thermal stability: polymorphic form after drying or heating (XRPD). The format is physicochemical. As to conditions: for crystal form obtained upon drying: drying by heating under ambient or reduced pressure, generally about 40° C. to about 80° C. The procedure: The various crystalline forms are related to each other in that drying of one form may result in a transformation to another form, namely nateglinide Forms A, B, D, E, F, G, H, I, J, K, L, M, N, Q, S, T, V, Z, α, β, δ, γ, ε, θ and Ω. The drying is carried out by heating a sample under ambient or reduced pressure. Generally, a preferred temperature is from about 40° C. to about 80° C., more preferably under reduced pressure. […] The term “stable” as used herein refers to a polymorphic change of less than about 5% by weight, more preferably less than about 2%, particularly for Form δ.
as §1
Sample of nateglinide form U (˜1 g) was introduced into a 6-gram vial and heated over 8.5 h in a 100° C. oil bath. The vial were extracted from the bath.
Sample of nateglinide form U (˜0.5 g) was heated to 120° C. for 1 h in an atmospheric pressure.
Sample of nateglinide form δ (˜0.5 g) was heated to 120° C. for 1 h in an atmospheric pressure.

The nature of data set [3]: Exposure of nateglinide Form H to solvent vapors. As to conditions: vapors of water and acetone, room temperature. It counts as physicochemical. As to the method:
Some of the crystalline forms are obtained by absorption of solvent vapors. Nateglinide is contacted with vapors of a particular solvent, resulting in absorption of the solvent. Absorption of ethanol results in Form D, methanol in Form O, and DCM in Form Y. Form H was stable in the presence of vapors of water and acetone.
Nateglinide (3.50 g) was added to a polypropylene can and weighed. The can was introduced into a bigger polypropylene container containing a solvent, and stored at room temperature. The can was removed from the container and weighed (Wfinal). The can content was divided into 2 portions. One portion was dried at a temperature of 55° C. and a pressure of 20–30 mmHg to constant weight (±0.01 g).

For data set [4] the following is noted: cited from earlier work.

Take `CC(C)[C@H]1CC[C@H](C(=O)N[C@H](Cc2ccccc2)C(=O)O)CC1` [Form A, nateglinide]: the “transition of one form to another on storage” value (shortened to “transition of one form”) in data set [1] (listed as A) is listed as “partially converts to Form B”. In data set [2] (listed as A), the “crystal form obtained upon drying” value is listed as “convert to Form B”.

Turning to `CC(C)[C@H]1CC[C@H](C(=O)N[C@H](Cc2ccccc2)C(=O)O)CC1` [Form B, nateglinide], the “thermal stability (conversion to another form upon heating)” value (“thermal stability” for short) in data set [2] is listed as “thermally stable”.

For the molecule `CC(C)[C@H]1CC[C@H](C(=O)N[C@H](Cc2ccccc2)C(=O)O)CC1` [Form C, nateglinide], the “crystal form obtained upon drying” value in data set [2] (listed as C) is recorded as “convert to Form B”.

In the case of `CC(C)[C@H]1CC[C@H](C(=O)N[C@H](Cc2ccccc2)C(=O)O)CC1` [Form D, nateglinide], in data set [2] (listed as D), the “crystal form obtained upon drying” value was “convert to Form B”.

Turning to `CC(C)[C@H]1CC[C@H](C(=O)N[C@H](Cc2ccccc2)C(=O)O)CC1` [Form E, nateglinide], the “crystal form obtained upon drying” value in data set [2] (listed as E) is “convert to Form B”.

With `CC(C)[C@H]1CC[C@H](C(=O)N[C@H](Cc2ccccc2)C(=O)O)CC1` [Form G, nateglinide], in data set [2] (listed as G), the “crystal form obtained upon drying” value is “convert to Form B”.

In the case of `CC(C)[C@H]1CC[C@H](C(=O)N[C@H](Cc2ccccc2)C(=O)O)CC1` [Form H, nateglinide], the “thermal stability” value in data set [2] is on record as “thermally stable”. The “stability in the presence of solvent vapors” value in data set [3] is recorded as “stable”.

Consider `CC(C)[C@H]1CC[C@H](C(=O)N[C@H](Cc2ccccc2)C(=O)O)CC1` [Form I, nateglinide], for which the “transition of one form” value in data set [1] (listed as I) is on record as “converts to Form L”.

For the molecule `CC(C)[C@H]1CC[C@H](C(=O)N[C@H](Cc2ccccc2)C(=O)O)CC1` [Form J, nateglinide], the “crystal form obtained upon drying” value in data set [2] (listed as J) is “convert to Form B”.

`CC(C)[C@H]1CC[C@H](C(=O)N[C@H](Cc2ccccc2)C(=O)O)CC1` [Form K, nateglinide]: in data set [2] (listed as K), the “crystal form obtained upon drying” value is “convert to Form B”.

In the case of `CC(C)[C@H]1CC[C@H](C(=O)N[C@H](Cc2ccccc2)C(=O)O)CC1` [Form L, nateglinide], the “thermal stability” value in data set [2] is listed as “thermally stable”.

For `CC(C)[C@H]1CC[C@H](C(=O)N[C@H](Cc2ccccc2)C(=O)O)CC1` [Form O, nateglinide], the “thermal stability” value in data set [2] is “somewhat stable”.

Turning to `CC(C)[C@H]1CC[C@H](C(=O)N[C@H](Cc2ccccc2)C(=O)O)CC1` [Form Q, nateglinide], the “transition of one form” value in data set [1] (listed as Q) is “converts to Form Y (containing chloroform)”. In data set [2] (listed as Q), the “crystal form obtained upon drying” value is recorded as “convert to Form B”.

As to `CC(C)[C@H]1CC[C@H](C(=O)N[C@H](Cc2ccccc2)C(=O)O)CC1` [Form T, nateglinide], the “transition of one form” value in data set [1] (listed as T) was “converts to Form E”. In addition, in data set [2] (listed as T), the “crystal form obtained upon drying” value is “convert to Form B; also recorded: mixture of Form B and G”.

As for `CC(C)[C@H]1CC[C@H](C(=O)N[C@H](Cc2ccccc2)C(=O)O)CC1` [Form U, nateglinide], in data set [2], the “thermal stability” value is listed as “thermally stable”. For the same molecule, in data set [2] (100° C. oil bath, 8.5 h, XRPD), the “crystal form after heating at about 100° C.” value was “does not undergo a transition; also recorded: Form U”. The “crystal form after heating to 120° C. for 1 h” value in data set [2] (120° C., 1 h, atmospheric pressure, XRPD) was “Form U”.

`CC(C)[C@H]1CC[C@H](C(=O)N[C@H](Cc2ccccc2)C(=O)O)CC1` [Form Y, nateglinide]: the “thermal stability” value in data set [2] is listed as “somewhat stable”.

With `CC(C)[C@H]1CC[C@H](C(=O)N[C@H](Cc2ccccc2)C(=O)O)CC1` [Form Z, nateglinide], in data set [2] (listed as Z), the “crystal form obtained upon drying” value was “convert to Form B”.

For the molecule `CC(C)[C@H]1CC[C@H](C(=O)N[C@H](Cc2ccccc2)C(=O)O)CC1` [Form Ω, nateglinide], the “crystal form after drying at 50° C. in a vacuum oven overnight” value in data set [2] (50° C., vacuum oven, overnight, XRD) is “mixture of Form omega and Form Z”. Also, the “crystal form obtained upon drying” value in data set [2] (listed as Ω) was “convert to Form B”.

For `CC(C)[C@H]1CC[C@H](C(=O)N[C@H](Cc2ccccc2)C(=O)O)CC1` [Form α, nateglinide], in data set [2], the “thermal stability” value was “somewhat stable”. Further, the “crystal form obtained upon drying” value in data set [2] (listed as α) is recorded as “convert to Form B”.

In the case of `CC(C)[C@H]1CC[C@H](C(=O)N[C@H](Cc2ccccc2)C(=O)O)CC1` [Form β, nateglinide], in data set [2] (listed as β), the “crystal form obtained upon drying” value was “convert to Form B”.

In the case of `CC(C)[C@H]1CC[C@H](C(=O)N[C@H](Cc2ccccc2)C(=O)O)CC1` [Form δ, nateglinide], the “thermal stability” value in data set [2] is listed as “somewhat stable”. The “crystal form after heating at 120° C.” value in data set [2] (120° C., 1 atmosphere, 1 h, XRPD) is reported as “Form B”. Further, in data set [2] (listed as δ), the “crystal form obtained upon drying” value is “convert to Form B”. The “polymorphic form after drying in a fluidized bed drier” value in data set [2] (fluidized bed drier, 4 hours at 60° C.) is given as “delta”. Also, in data set [2] (stirred reactor 7–10 rpm, 60 mmHg vacuum, 60° C., 6 hours), the “polymorph after drying in a stirred reactor” value is given as “remained delta form”.

As to `CC(C)[C@H]1CC[C@H](C(=O)N[C@H](Cc2ccccc2)C(=O)O)CC1` [Form θ, nateglinide], in data set [2] (listed as θ), the “crystal form obtained upon drying” value was “convert to Form B”.

In the case of `CC(C)[C@H]1CC[C@H](C(=O)N[C@H](Cc2ccccc2)C(=O)O)CC1` [Form σ, nateglinide], in data set [2], the “thermal stability” value is on record as “thermally stable”.

Take `CC(C)[C@H]1CC[C@H](C(=O)N[C@H](Cc2ccccc2)C(=O)O)CC1` [acetonitrile solvate of Form Epsilon, nateglinide]: the “crystal form obtained upon drying” value in data set [2] was “Form B”.

In the case of `CC(C)[C@H]1CC[C@H](C(=O)N[C@H](Cc2ccccc2)C(=O)O)CC1` [nateglinide, (−)-N-(trans-4-isopropylcyclohexanecarbonyl)-D-Phenylalanine], the solubility in acetonitrile entry in data set [4] (acetonitrile) is reported as “sparingly soluble”. In addition, the solubility in chloroform result in data set [4] (chloroform) is listed as “freely soluble”. In addition, the solubility in ethanol entry in data set [4] (ethanol) is given as “freely soluble”. Moreover, in data set [4] (ether), the solubility in ether result is “soluble”. Further, the solubility in methanol entry in data set [4] (methanol) is listed as “freely soluble”. For the same molecule, in data set [4] (octanol), the solubility in octanol entry is “sparingly soluble”. Moreover, the solubility in water entry in data set [4] (water) is “practically insoluble”.

For `CC(C)[C@H]1CC[C@H](C(=O)N[C@H](Cc2ccccc2)C(=O)O)CC1` [nitromethane solvates of Form Epsilon, nateglinide], the “crystal form obtained upon drying” value in data set [2] is “Forms H or P”.
